The values below come from PubChem BioAssay (NCI).

Some test systems named below: SNB-75 CNS; RXF 393 renal; U251 CNS; KM12 colon; RPMI-8226 leukemia; UACC-257 melanoma; DU-145 prostate; SF-539 CNS; COLO 205 colon; IGROV1 ovarian.
Holding throughout (experiment): NCI tumour cell line growth inhibition, 48 h

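Five compound concentrations were applied to cells in 96-well plates for 48 hours; endpoints were derived by simple linear interpolation of the resulting dose-response curve. At the GI50, growth is halved. At the TGI there is no net growth.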 Where a SMILES comes first, the peptide text is derived from it. [ ]: non-standard residue; d: D form. Ac5c = NC1(C(=O)O)CCCC1 Bounds are passed on as bounds.

On to `CC(O)c1cccc(NCc2c3ccccc3c(=O)n3c2oc2ccccc23)c1` (configuration not stated), for which the GI50 with SNB-75 CNS is 1.75 µM; in the experiment with RXF 393 renal, 22.5 µM; in the experiment on U251 CNS it was 9.92 µM; with KM12 colon, 13.4 µM; in the experiment on RPMI-8226 leukemia, 65 µM; in the experiment on UACC-257 melanoma, 8.24 µM. The GI50 is 5.46 µM with DU-145 prostate, 1.37 µM in the experiment with SF-539 CNS, over 100 µM in the experiment with COLO 205 colon and 1.32 µM in the experiment on IGROV1 ovarian. The TGI in the experiment on SNB-75 CNS was 5.76 µM; in the experiment with RXF 393 renal, 67.8 µM; with U251 CNS it was 21.5 µM; in the experiment with KM12 colon, over 100 µM; in the experiment on RPMI-8226 leukemia, over 100 µM; in the experiment on UACC-257 melanoma it was 47.7 µM. Moreover, the TGI in the experiment on DU-145 prostate was over 100 µM; in the experiment on SF-539 CNS it was 3.43 µM; in the experiment on COLO 205 colon, over 100 µM; in the experiment on IGROV1 ovarian, 27 µM.
`CCN(CC)CC(O)CNc1ccc(NCC2CO2)c2c1C(=O)c1ccccc1C2=O` (configuration not stated): the TGI with SNB-75 CNS turned out to be 4.29 µM; in the experiment with RXF 393 renal, 0.953 µM; in the experiment on U251 CNS it was 19.6 µM; in the experiment with KM12 colon, 1.74 µM; in the experiment on RPMI-8226 leukemia it was 5.35 µM; with UACC-257 melanoma it was 4.04 µM. For the same compound, the TGI in the experiment on DU-145 prostate was 5.04 µM; with SF-539 CNS it was 3.08 µM; in the experiment with COLO 205 colon it was 4.38 µM; in the experiment on IGROV1 ovarian, 5.79 µM. Also, the GI50 is 0.373 µM in the experiment with U251 CNS, 0.581 µM in the experiment with COLO 205 colon and 0.657 µM with IGROV1 ovarian.
As to `O=C1c2ccccc2-c2c1c1ccccc1c(=O)n2CCCNCCCn1ccnc1`, the GI50 was 2.61 µM with SNB-75 CNS; 1.48 µM with RXF 393 renal; 0.285 µM in the experiment on U251 CNS; 0.593 µM in the experiment on KM12 colon; 0.195 µM with RPMI-8226 leukemia; 4.62 µM with UACC-257 melanoma. Also, the GI50 in the experiment with DU-145 prostate is 0.318 µM; in the experiment on SF-539 CNS, 0.908 µM; in the experiment with COLO 205 colon, 2.13 µM; in the experiment with IGROV1 ovarian, 0.442 µM. In addition, the TGI in the experiment on SNB-75 CNS amounted to 9.84 µM; in the experiment with RXF 393 renal, 4.31 µM; in the experiment with U251 CNS it was 1.42 µM; in the experiment on KM12 colon, 2.41 µM; with RPMI-8226 leukemia it was 1.02 µM; with UACC-257 melanoma it was 23.1 µM. The figures for the TGI in the experiment on DU-145 prostate, in the experiment with SF-539 CNS and in the experiment with COLO 205 colon were 2.07 µM, 2.48 µM and 13.2 µM, respectively.
For `O=C1Nc2ccc(C(=O)c3ccco3)cc2/C1=C/c1cc(Cl)c(O)c(Cl)c1`, the GI50 with SNB-75 CNS was 6.16 µM; in the experiment with RXF 393 renal it was 2.77 µM; with U251 CNS, 3.95 µM; in the experiment on KM12 colon, 3.62 µM; with RPMI-8226 leukemia, 4.02 µM; in the experiment with UACC-257 melanoma, 4.79 µM. In addition, the GI50 in the experiment on DU-145 prostate was 4.75 µM; in the experiment on SF-539 CNS it was 3.93 µM; with COLO 205 colon, 8.01 µM; in the experiment with IGROV1 ovarian, 3.36 µM. The TGI with SNB-75 CNS was over 25 µM; in the experiment on RXF 393 renal, 15.5 µM; in the experiment with U251 CNS it was over 25 µM; in the experiment with KM12 colon it was over 17.7 µM; with RPMI-8226 leukemia, 12.5 µM; in the experiment on UACC-257 melanoma it was 17.9 µM. Besides, the TGI was over 18.4 µM with DU-145 prostate, 9.49 µM in the experiment on SF-539 CNS, over 25 µM in the experiment on COLO 205 colon and over 20.7 µM in the experiment on IGROV1 ovarian.
For the compound `CC(=O)[O-].CC(=O)[O-].[Pt+2].c1cscn1.c1cscn1`, the GI50 in the experiment on SNB-75 CNS is over 100 µM; with RXF 393 renal, over 100 µM; in the experiment on U251 CNS it was 54.5 µM; with KM12 colon, over 100 µM; in the experiment with RPMI-8226 leukemia it was 57.7 µM; in the experiment with UACC-257 melanoma, 31.9 µM. In addition, the GI50 with DU-145 prostate is 22.9 µM; with SF-539 CNS, 48.3 µM; with COLO 205 colon, over 100 µM; with IGROV1 ovarian, over 100 µM. The TGI in the experiment on SNB-75 CNS is over 100 µM; in the experiment on RXF 393 renal, over 100 µM; with U251 CNS, over 100 µM; in the experiment with KM12 colon, over 100 µM; in the experiment with RPMI-8226 leukemia, over 100 µM; with UACC-257 melanoma, 85.3 µM. Moreover, the TGI with DU-145 prostate, in the experiment with SF-539 CNS, in the experiment on COLO 205 colon and with IGROV1 ovarian was over 100 µM throughout.
On to `NC1(C(=O)NC2(C(=O)O)CCCC2)CCCC1` (H-[Ac5c]-[Ac5c]-OH), for which the TGI in the experiment with SNB-75 CNS, with RXF 393 renal, with U251 CNS, in the experiment with KM12 colon, in the experiment with RPMI-8226 leukemia and with UACC-257 melanoma was over 100 µM in each case. Also, the TGI in the experiment with DU-145 prostate, in the experiment on SF-539 CNS, in the experiment on COLO 205 colon and in the experiment with IGROV1 ovarian was over 100 µM throughout.
